These results are taken from US9029544B2, “Tricyclic pyridine derivatives, medicaments containing such compounds, their use and process for their preparation” (Boehringer Ingelheim International GmbH, priority 2010, dated 2015).

This experiment has as its target T1, Recombinant human CETP (Homo sapiens, UniProt P11597).
T1 construct: made in house; host or cells: CHO cells (secreted into conditioned medium)
T1 sequence (P11597 18-493): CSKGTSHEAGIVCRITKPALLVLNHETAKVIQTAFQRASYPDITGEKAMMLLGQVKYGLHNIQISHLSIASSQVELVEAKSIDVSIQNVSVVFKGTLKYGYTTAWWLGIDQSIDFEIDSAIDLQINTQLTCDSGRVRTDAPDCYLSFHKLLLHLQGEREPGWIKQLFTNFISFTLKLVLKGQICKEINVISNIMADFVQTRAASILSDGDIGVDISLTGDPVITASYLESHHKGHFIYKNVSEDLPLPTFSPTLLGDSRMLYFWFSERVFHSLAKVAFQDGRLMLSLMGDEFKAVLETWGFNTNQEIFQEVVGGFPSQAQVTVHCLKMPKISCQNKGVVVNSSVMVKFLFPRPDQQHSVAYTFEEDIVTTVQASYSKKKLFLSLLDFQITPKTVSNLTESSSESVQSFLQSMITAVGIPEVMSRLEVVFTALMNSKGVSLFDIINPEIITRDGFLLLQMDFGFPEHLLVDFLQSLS
The experiment in a line: CETP in vitro assay (fluorometric assay, Roar Biomedical; cholesterol ester transfer from HDL to LDL). Conditions: recombinant human CETP from CHO cells; 3 hours at 37° C.; fluorescence 485/535 nm; compound concentrations between 1 nM and 30 μM; read-out: IC50 values for inhibition of CETP. Format: biochemical. As to the method:
CETP inhibitory activity of compounds of the present invention can be determined in a fluorometric assay purchased from Roar Biomedical, Inc. (New York, N.Y., USA). […] Recombinant human CETP was partially purified from medium conditioned by CETP expressing CHO cells. In a 384 well format 2.5 μl of compound solution in DMSO was combined with 2 μl of donor solution, 2 μl of acceptor solution and 0.8 μl of recombinant human CETP solution in a total volume of 100 μl with assay buffer and incubated for 3 hours at 37° C. The fluorescence intensity was measured at excitation wavelength of 485 nm and emission wavelength of 535 nm. IC50 values are calculated from dose effect curves from compound concentrations between 1 nM and 30 μM.

As to `O[C@H]1CC2(CCC2)[C@@H](O)c2nc(C3CCOCC3)c3c(c21)C1(CCOCC1)O[C@@H]3c1ccc(C(F)(F)F)cn1` [6(1), (3S,6R,9S)-7,7-(propan-1,3-diyl)-4-(tetrahydro-2H-pyran-4-yl)-3-(5-(trifluoromethyl)pyridin-2-yl)-2′,3′,5′,6,6′,7,8,9-octahydro-3H-spiro[furo[3,4-c]quinoline-1,4′-pyran]-6,9-diol], the half-inhibitory concentration (IC50) (usually the concentration at which inhibition is half-maximal) stood at 1220 nM.
The value for `CC(C)c1nc2c(c3c1[C@@H](c1ccc(C4(C)COC4)cc1)OC31CCOCC1)[C@@H](O)CC(C)(C)C2` [1(64), (3R,9S)-4-isopropyl-7,7-dimethyl-3-(4-(3-methyloxetan-3-yl)phenyl)-2′,3′,5′,6,6′,7,8,9-octahydro-3H-spiro[furo[3,4-c]quinoline-1,4′-pyran]-9-ol] was 86 nM; that for `CC1(C)C[C@H](O)c2c(nc(C3CCOCC3)c3c2C2(CCOCC2)O[C@@H]3c2ccc(S(F)(F)(F)(F)F)cc2)[C@@H]1O` [4(12), (3R,6R,9S)-7,7-dimethyl-4-(tetrahydro-2H-pyran-4-yl)-3-(4-(pentafluorosulfanyl)phenyl)-2′,3′,5′,6,6′,7,8,9-octahydro-3H-spiro[furo[3,4-c]quinoline-1,4′-pyran]-6,9-diol] was 70 nM.
In the case of `N#Cc1cc([C@H]2OC3(CCOCC3)c3c2c(C2CCOCC2)nc2c3[C@@H](O)CC3(CCC3)C2)ccc1C(F)(F)F` [1(72), 5-((3R,9S)-9-hydroxy-7,7-(propan-1,3-diyl)-4-(tetrahydro-2H-pyran-4-yl)-2′,3′,5′,6,6′,7,8,9-octahydro-3H-spiro[furo[3,4-c]quinoline-1,4′-pyran]-3-yl)-2-(trifluoromethyl)benzonitrile] it was 39 nM; in that of `CC(C)c1nc2c(c3c1[C@@H](c1ccc(OC(C)(C)C)cc1)OC31CCOCC1)[C@@H](O)CC(C)(C)C2` [1(58), (3R,9S)-3-(4-tert-butoxyphenyl)-4-isopropyl-7,7-dimethyl-2′,3′,5′,6,6′,7,8,9-octahydro-3H-spiro[furo[3,4-c]quinoline-1,4′-pyran]-9-ol], 88 nM; in that of `CC(C)c1nc2c(c3c1[C@@H](c1ccc(C(F)(F)F)cn1)OC31CCC(F)(F)CC1)[C@@H](O)CC(C)(C)C2` (single isomer, unassigned) [7 (Diastereomer 1), (3′S,9′S)-4,4-difluoro-4′-isopropyl-7′,7′-dimethyl-3′-(5-(trifluoromethyl)pyridin-2-yl)-6′,7′,8′,9′-tetrahydro-3′H-spiro[cyclohexane-1,1′-furo[3,4-c]quinolin]-9′-ol], 193 nM.
In the case of `CC(C)c1nc2c(c3c1[C@@H](c1ccc(C(C)(C)C)cc1)OC31CCCC1)[C@@H](O)CC1(CCC1)C2` [1(62), (3′R,9′S)-3′-(4-tert-butylphenyl)-4′-isopropyl-7′,7′-(propan-1,3-diyl)-6′,7′,8′,9′-tetrahydro-3′H-spiro[cyclopentane-1,1′-furo[3,4-c]quinolin]-9′-ol] it was 21 nM.
In the case of `CC(C)c1nc2c(c3c1[C@@H](c1ccc(C(F)(F)F)nc1)OC31CCOCC1)[C@@H](O)CC(C)(C)C2` [1(47), (3R,9S)-4-isopropyl-7,7-dimethyl-3-(6-(trifluoromethyl)pyridin-3-yl)-2′,3′,5′,6,6′,7,8,9-octahydro-3H-spiro[furo[3,4-c]quinoline-1,4′-pyran]-9-ol], the concentration for half-maximal inhibition (IC50) is 136 nM.
The value for `CC(C)c1nc2c(c3c1[C@@H](c1ccc(C(F)(F)F)c(C#N)c1)OC31CCOCC1)[C@@H](O)CC(C)(C)[C@H]2O` [4(15), 5-((3R,6R,9S)-6,9-dihydroxy-4-isopropyl-7,7-dimethyl-2′,3′,5′,6,6′,7,8,9-octahydro-3H-spiro[furo[3,4-c]quinoline-1,4′-pyran]-3-yl)-2-(trifluoromethyl)benzonitrile] was 27 nM; that for `CC1(C)Cc2nc(C3CCOCC3)c3c(c2[C@@H](O)C1)C1(CCOCC1)O[C@@H]3c1ccc(C(F)(F)F)cn1` [1(73), (3S,9S)-7,7-dimethyl-4-(tetrahydro-2H-pyran-4-yl)-3-(5-(trifluoromethyl)pyridin-2-yl)-2′,3′,5′,6,6′,7,8,9-octahydro-3H-spiro[furo[3,4-c]quinoline-1,4′-pyran]-9-ol] was 1700 nM.
With `CC(C)c1nc2c(c3c1[C@@H](c1ccc(C(F)(F)F)nc1)OC31CCCC1)[C@@H](O)CC(C)(C)[C@H]2O` [4(1), (3′R,6′R,9′S)-4′-isopropyl-7′,7′-dimethyl-3′-(6-(trifluoromethyl)pyridin-3-yl)-6′,7′,8′,9′-tetrahydro-3′H-spiro[cyclopentane-1,1′-furo[3,4-c]quinoline]-6′,9′-diol], the 50% inhibitory concentration (IC50) amounted to 127 nM.
As for `O[C@H]1CC2(CCC2)[C@@H](O)c2nc(C3CCOCC3)c3c(c21)C1(CCOCC1)O[C@@H]3c1ccc(C(F)(F)F)cc1` [4(16), (3R,6R,9S)-7,7-(propan-1,3-diyl)-4-(tetrahydro-2H-pyran-4-yl)-3-(4-(trifluoromethyl)phenyl)-2′,3′,5′,6,6′,7,8,9-octahydro-3H-spiro[furo[3,4-c]quinoline-1,4′-pyran]-6,9-diol], the IC50 amounted to 44 nM.
In the case of `COC(C)(C)c1nc2c(c3c1[C@@H](c1ccc(C(F)(F)F)cc1)OC31CCOCC1)[C@@H](O)CC(C)(C)C2` [1(83), (3R,9S)-4-(2-methoxypropan-2-yl)-7,7-dimethyl-3-(4-(trifluoromethyl)phenyl)-2′,3′,5′,6,6′,7,8,9-octahydro-3H-spiro[furo[3,4-c]quinoline-1,4′-pyran]-9-ol] it was 25 nM; in that of `CC(C)Oc1ccc([C@H]2OC3(CCOCC3)c3c2c(C(C)C)nc2c3[C@@H](O)CC(C)(C)C2)cc1` [1(59), (3R,9S)-3-(4-isopropoxyphenyl)-4-isopropyl-7,7-dimethyl-2′,3′,5′,6,6′,7,8,9-octahydro-3H-spiro[furo[3,4-c]quinoline-1,4′-pyran]-9-ol], 245 nM.
In the case of `CC(C)c1nc2c(c3c1[C@@H](c1ccc(C(F)(F)F)c(C#N)c1)OC31CCOCC1)[C@@H](O)CC1(CCC1)C2` [1(79), 5-((3R,9S)-9-hydroxy-4-isopropyl-7,7-(propan-1,3-diyl)-2′,3′,5′,6,6′,7,8,9-octahydro-3H-spiro[furo[3,4-c]quinoline-1,4′-pyran]-3-yl)-2-(trifluoromethyl)benzonitrile], the IC50 is 18 nM.
The value for `CC(C)c1nc2c(c3c1[C@@H](c1ccc(C(F)(F)F)cc1F)OC31CCOCC1)[C@@H](O)CC(C)(C)C2` [1(55), (3S,9S)-3-(2-fluoro-4-(trifluoromethyl)phenyl)-4-isopropyl-7,7-dimethyl-2′,3′,5′,6,6′,7,8,9-octahydro-3H-spiro[furo[3,4-c]quinoline-1,4′-pyran]-9-ol] was 26 nM; that for `CC(C)c1nc2c(c3c1[C@@H](c1ccc(C(F)(F)F)cc1)OC31CCOCC1)[C@@H](O)CC1(CCC1)C2` [1(50), (3R,9S)-4-isopropyl-7,7-(propan-1,3-diyl)-3-(4-(trifluoromethyl)phenyl)-2′,3′,5′,6,6′,7,8,9-octahydro-3H-spiro[furo[3,4-c]quinoline-1,4′-pyran]-9-ol] was 7 nM; that for `CC(C)c1nc2c(c3c1[C@@H](c1ccc(C(F)(F)F)c(F)c1)OC31CCOCC1)[C@@H](O)CC(C)(C)C2` [1(53), (3R,9S)-3-(3-fluoro-4-(trifluoromethyl)phenyl)-4-isopropyl-7,7-dimethyl-2′,3′,5′,6,6′,7,8,9-octahydro-3H-spiro[furo[3,4-c]quinoline-1,4′-pyran]-9-ol] was 23 nM.
As for `CC1(C)C[C@H](O)c2c(nc(C3CCOCC3)c3c2C2(CCOCC2)O[C@@H]3c2ccc(C(F)(F)F)nc2)[C@@H]1O` [6(2), (3R,6R,9S)-7,7-dimethyl-4-(tetrahydro-2H-pyran-4-yl)-3-(6-(trifluoromethyl)pyridin-3-yl)-2′,3′,5′,6,6′,7,8,9-octahydro-3H-spiro[furo[3,4-c]quinoline-1,4′-pyran]-6,9-diol], the IC50 is 1540 nM.
On to `CC1(C)C[C@H](O)c2c(nc(C3CCOCC3)c3c2C2(CCOCC2)O[C@@H]3c2ccc(C(F)(F)F)cc2)[C@@H]1O` [4(11), (3R,6R,9S)-7,7-dimethyl-4-(tetrahydro-2H-pyran-4-yl)-3-(4-(trifluoromethyl)phenyl)-2′,3′,5′,6,6′,7,8,9-octahydro-3H-spiro[furo[3,4-c]quinoline-1,4′-pyran]-6,9-diol], for which the IC50 is 255 nM.
Regarding `COCc1nc2c(c3c1[C@@H](c1ccc(C(F)(F)F)cc1)OC31CCOCC1)[C@@H](O)CC(C)(C)C2` [1(82), (3R,9S)-4-(methoxymethyl)-7,7-dimethyl-3-(4-(trifluoromethyl)phenyl)-2′,3′,5′,6,6′,7,8,9-octahydro-3H-spiro[furo[3,4-c]quinoline-1,4′-pyran]-9-ol], the half-inhibitory concentration (IC50) stood at 786 nM.
In the case of `CC(C)c1nc2c(c3c1[C@@H](c1ccc(C(F)(F)F)cn1)OC31CCOCC1)[C@@H](O)CC(C)(C)C2` [1(67), (3S,9S)-4-isopropyl-7,7-dimethyl-3-(5-(trifluoromethyl)pyridin-2-yl)-2′,3′,5′,6,6′,7,8,9-octahydro-3H-spiro[furo[3,4-c]quinoline-1,4′-pyran]-9-ol] it was 161 nM.
